Assays:
[1] = human
[2] = human; remark: listed apart in the source
[3] = human; remark: listed apart in the source
[4] = human, serum
[5] = Highest frequency of moderate liver toxicity observed during clinical trials, expressed as a percentage. [column '% BIOL' in source]; settings: human
[6] = Highest frequency of acute liver toxicity observed during clinical trials, expressed as a percentage. [column '% AIGUE' in source]; settings: human
[7] = human; remark: listed apart in the source
[8] = human; remark: listed apart in the source
[9] = human; remark: listed apart in the source
[10] = human, serum, 4383 h
[11] = human; remark: listed apart in the source
[12] = human, serum; remark: listed apart in the source
[13] = human; remark: listed apart in the source
[14] = human; remark: listed apart in the source
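Wherever Hepatotoxicity (association with vascular disease) is given: count of indexed literature references reporting vascular liver injury in humans, e.g. peliosis hepatitis, hepatic veno-occlusive disease or Budd-Chiari syndrome.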
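Wherever Hepatotoxicity (benign tumour) is given: value is a count of indexed literature references citing a benign tumour confirmed by histopathology.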
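Wherever Hepatotoxicity (choleostasis) is given: human cholestatic liver injury, shown by histopathology or by peak ALT or AST elevation over alkaline phosphatase ratio below 2, value counts indexed literature reports.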
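Wherever Hepatotoxicity (chronic liver disease) is given: chronic liver injury confirmed by histopathology or persistently raised serum aminotransferase activity beyond 6 months, value given as the count of indexed literature references.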
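Wherever Hepatotoxicity (cirrhosis) is given: value is a count of indexed literature references reporting cirrhosis confirmed by histopathology.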
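Wherever Hepatotoxicity (cytolytic) is given: human cytolytic liver injury, shown by histopathology or by a ratio above 5 of peak ALT or AST elevation to alkaline phosphatase elevation, value counts indexed references.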
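Wherever Hepatotoxicity (granulomatous hepatitis) is given: value is a count of indexed literature references reporting granulomatous liver disease confirmed by histopathology.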
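Wherever Hepatotoxicity (malignant tumour) is given: malignant tumour confirmed by histopathology, value gives the count of indexed literature references reporting it.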
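Wherever Hepatotoxicity (severe hepatitis) is given: human clinical data: severe hepatitis, meaning potentially life-threatening liver failure or clinically observed cases, the value counts how many indexed literature references report it.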
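Wherever Hepatotoxicity (steatosis) is given: steatosis confirmed by histopathology, value is the count of indexed references.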

Row | Compound | Hepatotoxicity (steatosis) [1] | Hepatotoxicity (benign tumour) [2] | Hepatotoxicity (malignant tumour) [3] | Hepatotoxicity (acute) [4] | Hepatotoxicity (moderate) [5] [%] | Hepatotoxicity (acute) [6] [%] | Hepatotoxicity (severe hepatitis) [7] | Hepatotoxicity (cirrhosis) [8] | Hepatotoxicity (cytolytic) [9] | Hepatotoxicity (chronic liver disease) [10] | Hepatotoxicity (association with vascular disease) [11] | Hepatotoxicity (moderate) [12] | Hepatotoxicity (granulomatous hepatitis) [13] | Hepatotoxicity (choleostasis) [14]
1 | CN(C)CCN1C(=O)c2cccc3cc(N)cc(c23)C1=O [AMONAFIDE] | 0 | 0 | 0 | 0 | 44 | 0 | 0 | 0 | 0 | 0 | 0 | 5 | 0 | 0
2 | CC(C)(C#N)c1cc(Cn2cncn2)cc(C(C)(C)C#N)c1 [ANASTROZOLE] | 0 | 0 | 0 | 0 | 0 | 0 | 0 | 0 | 0 | 0 | 0 | 1 | 0 | 0
3 | O=c1n(CC2CO2)c(=O)n(CC2CO2)n1CC1CO1 (stereo not given) [ANAXIRONE] | 0 | 0 | 0 | 0 | 0 | 0 | 0 | 0 | 0 | 0 | 0 | 1 | 0 | 0
4 | Cc1cc(=O)n(-c2ccccc2)n1C [ANTIPYRINE] | 0 | 0 | 0 | 1 | 0 | 0 | 0 | 0 | 0 | 0 | 0 | 0 | 0 | 1
5 | CN1CCc2cccc3c2[C@H]1Cc1ccc(O)c(O)c1-3 [APOMORPHINE] | 0 | 0 | 0 | 0 | 0 | 0 | 0 | 0 | 0 | 0 | 0 | 1 | 0 | 0
6 | NCC[C@H](O)C(=O)N[C@@H]1C[C@H](N)[C@@H](O[C@H]2O[C@H](CN)CC[C@H]2N)[C@H](O)[C@H]1O[C@H]1O[C@H](CO)[C@@H](O)[C@H](N)[C@H]1O [ARBEKACIN] | 0 | 0 | 0 | 0 | 27.3 | 0 | 0 | 0 | 0 | 0 | 0 | 30 | 0 | 0
7 | CNC(=O)C[C@@H](N)C(=O)N[C@@H](C(=O)N[C@@H]1C(=O)N2[C@@H]1SC(C)(C)[C@@H]2C(=O)O)c1ccc(O)cc1 [ASPOXICILLIN] | 0 | 0 | 0 | 0 | 40 | 0 | 0 | 0 | 0 | 0 | 0 | 20 | 0 | 0
8 | CO[C@H]1[C@@H](O)[C@H](N)[C@@H](O[C@H]2O[C@H]([C@H](C)N)CC[C@H]2N)[C@H](O)[C@@H]1N(C)C(=O)CN [ASTROMICIN] | 0 | 0 | 0 | 0 | 7.3 | 0 | 0 | 0 | 0 | 0 | 0 | 1 | 0 | 0
9 | CNC(=O)c1cccc2c(Nc3ccc(NS(C)(=O)=O)cc3OC)c3cccc(C)c3nc12 [ASULACRINE] | 0 | 0 | 0 | 0 | 17 | 0 | 0 | 0 | 0 | 0 | 0 | 2 | 0 | 0
10 | CC1(C)S[C@@H]2[C@H](NC(=O)[C@H](NC(=O)N3CCNC3=O)c3ccccc3)C(=O)N2[C@H]1C(=O)O [AZLOCILLIN] | 0 | 0 | 0 | 0 | 11.1 | 0 | 0 | 0 | 0 | 0 | 0 | 3 | 0 | 0
11 | CCOC(=O)OC(C)OC(=O)[C@@H]1N2C(=O)[C@@H](NC(=O)[C@H](N)c3ccccc3)[C@H]2SC1(C)C (stereo not given in full) [BACAMPICILLIN] | 0 | 0 | 0 | 0 | 0 | 0 | 0 | 0 | 0 | 0 | 0 | 2 | 0 | 0
12 | CCOC(=O)OC(C)OC(=O)[C@@H]1N2C(=O)[C@@H](/N=C/N3CCCCCC3)[C@H]2SC1(C)C (stereo not given in full) [BACMECILLINAM] | 0 | 0 | 0 | 0 | 1.8 | 0 | 0 | 0 | 0 | 0 | 0 | 3 | 0 | 0
13 | CNC1CCCN(c2c(F)cc3c(=O)c(C(=O)O)cn(C4CC4)c3c2OC)C1 (stereo not given) [BALOFLOXACIN] | 0 | 0 | 0 | 0 | 28.6 | 0 | 0 | 0 | 0 | 0 | 0 | 23 | 0 | 0
14 | COC(=O)C1=C(C)NC(C)=C(C(=O)O[C@H]2CCN(Cc3ccccc3)C2)[C@H]1c1cccc([N+](=O)[O-])c1 [BARNIDIPINE] | 0 | 0 | 0 | 0 | 6.5 | 0 | 0 | 0 | 0 | 0 | 0 | 1 | 0 | 0
15 | C[C@H]1C[C@H]2[C@@H]3CCC4=CC(=O)C=C[C@]4(C)[C@@]3(Cl)[C@@H](O)C[C@]2(C)[C@@]1(O)C(=O)CO [BECLOMETHASONE] | 0 | 0 | 0 | 0 | 11.6 | 0 | 0 | 0 | 0 | 0 | 0 | 1 | 0 | 0
